From article PMC7558535, “In Vitro Metabolism of DWP16001, a Novel Sodium-Glucose Cotransporter 2 Inhibitor, in Human and Animal Hepatocytes” (Pharmaceutics, 2020)
Where two headings read alike, the source gives them in different places. Each block holds one compound with its values, some of them ahead of it.

Assays:
11 human CYP enzymes = assay: CYP screening, whole panel; assay type: in vitro ADME
Procedure: DWP16001, M1, or M2 was incubated with 11 human cDNA-expressed CYP enzymes (1A1, 1A2, 2A6, 2B6, 2C8, 2C9, 2C19, 2D6, 2E1, 3A4, and 3A5) to identify the CYP enzymes involved in the metabolism of DWP16001. Reaction mixtures of 95 µL containing DWP16001 (final concentration: 5 µM), M1 or M2 (final concentration: 10 µM), and CYPs (final amount: 10 pmol) were prepared in 0.1 M potassium phosphate buffer (pH 7.4). The reaction was started by adding 5 µL of NADPH-generating system; the mixtures were incubated for 30 min at 37 °C in triplicate. Reactions were stopped by the addition of 400 µL of ice-cold ketoconazole (internal standard, 200 ng/mL) in ice-cold acetonitrile. Samples were centrifuged at 15,000× g for 8 min at 4 °C. Seventy-five microliter aliquots of the supernatants were diluted with 75 µL of deionized water and analyzed using an LC–MS/MS system.

13 human UGT enzymes = assay: UGT screening, whole panel; assay type: in vitro ADME; conditions: incubation of M1 with 13 human UGT enzymes and UDPGA
Procedure: To screen for UGT enzymes responsible for glucuronidation of DWP16001, 100 μL of reaction mixtures containing 13 human cDNA-expressed UGT enzymes (1A1, 1A3, 1A4, 1A6, 1A7, 1A8, 1A9, 1A10, 2B4, 2B7, 2B10, 2B15, and 2B17) at 0.1 mg protein/mL, 5 mM UDPGA, 0.025 mg/mL alamethicin, and 25 μM DWP16001 or M1 in 50 mM Tris buffer (pH 7.4) were incubated at 37 °C for 30 min in triplicate. Reactions were stopped by adding 100 μL of ketoconazole (internal standard, 200 ng/mL) in acetonitrile, followed by vortex-mixing and centrifugation (15,000× g, 8 min, 4 °C). The supernatant (75 μL) was diluted with equal volume of 30% acetonitrile and aliquots (5 μL) were injected into an LC-MS/MS system.

[1] = human, cited from earlier work
[2] = human; cited from earlier work
human hepatocytes = conditions: cited from earlier work
[3] = cited from earlier work
SGLT2 = system: SGLT2; set-up: method as in PMID 32183468; conditions: read-out: IC50 (SGLT2 inhibition); cited from earlier work

Formation of M4 from M1 (11 human CYP enzymes; incubation of M1 with 11 human CYP enzymes and NADPH): not detected
Formation of M1 glucuronides U4 and U5 from M1 (13 human UGT enzymes): not formed
SMILES: OC[C@H]1O[C@@H](c2cc(Cc3ccc(C4CC4)cc3)c(Cl)c3c2CC(O)O3)[C@H](O)[C@@H](O)[C@@H]1O (stereo partly drawn) [M1, (2S,3R,4R,5S,6R)-2-(7-chloro-6-(4-cyclopropylbenzyl)-2-hydroxy-2,3-dihydrobenzofuran-4-yl)-6-(hydroxymethyl)tetrahydro-2H-pyran-3,4,5-triol]

SMILES: CCOc1ccc(Cc2cc([C@@H]3O[C@H](CO)[C@@H](O)[C@H](O)[C@H]3O)ccc2Cl)cc1 [dapagliflozin]
Increase of AUC ([1]; pretreatment with mefenamic acid 250 mg every 6 h for 5 days): 50%
Decrease of AUC ([1]; repeated rifampin 600 mg/day for 6 days): 22%
Share of oxidative metabolism (CYP2D6, CYP3A4, CYP2C9 etc.) in metabolism [2]: less than 10%
Hepatic extraction (human hepatocytes): low

SMILES: Cc1ccc([C@@H]2O[C@H](CO)[C@@H](O)[C@H](O)[C@H]2O)cc1Cc1ccc(-c2ccc(F)cc2)s1 [canagliflozin]
Drug interaction on co-administration ([3]; glyburide, metformin, and simvastatin): did not cause significant drug interactions
Increase of AUC ([3]; human, cyclosporine A 400 mg): 23%
Increase of AUC ([3]; human, probenecid 500 mg twice per day for 3 days): 20.7%
Decrease of AUC ([3]; human, repeated rifampin 600 mg/day for 8 days): 48.7%

Formation of M5 from M2 (11 human CYP enzymes; incubation of M2 with 11 human CYP enzymes and NADPH): not detected
SMILES: OC[C@H]1O[C@@H](c2cc(Cc3ccc(C4(O)CC4)cc3)c(Cl)c3c2CCO3)[C@H](O)[C@@H](O)[C@@H]1O [M2, (2S,3R,4R,5S,6R)-2-(7-chloro-6-(4-(1-hydroxycyclopropyl)benzyl)-2,3-dihydrobenzofuran-4-yl)-6-(hydroxymethyl)tetrahydro-2H-pyran-3,4,5-triol]

SMILES: OC[C@H]1O[C@@H](c2ccc(F)c(Cc3cc4ccccc4s3)c2)[C@H](O)[C@@H](O)[C@@H]1O [ipragliflozin]
IC50 (SGLT2): 8.9 ± 1.7 nM
